Source: patent publication US20230148184A1, “COMPOUNDS AND METHODS FOR MODULATING SPLICING” (REMIX THERAPEUTICS INC., priority 2020, published 2023)
pIC50: −log10 of the molar value.

What was measured:
Assay type in all cases: cell-based
HTT mRNA = experiment: RT-qPCR splicing assay for HTT mRNA isoforms (canonical junction CJ and alternative junction AJ); details: A673 or K562 cell line, 24 hours compound treatment; for pIC50: decrease in CJ mRNA; for AC50: increase in AJ mRNA
Outline: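 A673 (DMEM, 10% FBS) or K562 (IMDM, 10% FBS) cells were treated 24 h at 37 °C with an 11-point 3-fold series, top dose 10 uM, DMSO ≤0.25%. In lysates, HTT CJ and AJ isoforms were quantified by one-step RT-qPCR and normalized to PPIA (A673) or GAPDH/GUSB (K562), at least in duplicate.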

HTT CJ mRNA = experiment: Gene panel canonical junction qPCR assay, HTT; details: decrease in CJ mRNA levels, RT-qPCR
Outline: (§1)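 A673 or K562 cells treated 24 h at 37 °C with 11-point 3-fold dilutions (top 10 uM final, DMSO ≤0.25%); lysates analysed by one-step RT-qPCR for canonical-junction mRNA. ΔCt vs GAPDH, GUSB or PPIA housekeeper, normalised to DMSO (ΔΔCt), converted to RQ via 2^(−ΔΔCt) and percentage response.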

SMN2 CJ mRNA = experiment: Gene panel canonical junction qPCR assay, SMN2; details: decrease in CJ mRNA levels, RT-qPCR
Outline: as §1

Target C CJ mRNA = experiment: Gene panel canonical junction qPCR assay, Target C; details: decrease in CJ mRNA levels, RT-qPCR
Outline: as §1

| Compound | pIC50 (HTT mRNA) | AC50 (HTT mRNA) | pIC50 (HTT CJ mRNA) | pIC50 (SMN2 CJ mRNA) | pIC50 (Target C CJ mRNA) |
| --- | --- | --- | --- | --- | --- |
| Cc1ncc(-c2ccc3c(c2)COc2nc(N(C)[C@@H]4C[C@H]5CC[C@@H](C4)N5)ccc2-3)o1 [Compound 155] | > 7.00 | < 100 nM | > 7.00 | > 7.00 | 6.00 to 7.00 |
| CCN(c1ccc2c(n1)OCc1cc(-n3cccn3)ccc1-2)C1CC(C)(C)NC(C)(C)C1 [Compound 189] | < 5.00 | 1000 to 10000 nM | < 5.00 | 5.00 to 6.00 | < 5.00 |
| CN(c1ccc2c(n1)OCc1cc(-c3ccn(C)c(=O)c3)ccc1-2)[C@@H]1C[C@H]2CC[C@@H](C1)N2 [Compound 153] | > 7.00 | < 100 nM | > 7.00 | > 7.00 | > 7.00 |
| CC1(C)CC(Oc2ccc3c(n2)OCc2cc(-n4cccn4)ccc2-3)CC(C)(C)N1 [Compound 171] | 5.00 to 6.00 | 1000 to 10000 nM | 5.00 to 6.00 | 6.00 to 7.00 | 5.00 to 6.00 |
| CN(c1ccc2c(n1)OCc1cc(-c3ccc(=O)[nH]c3)ccc1-2)[C@@H]1C[C@H]2CC[C@@H](C1)N2 [Compound 157] | 5.00 to 6.00 | 1000 to 10000 nM | 5.00 to 6.00 | 6.00 to 7.00 | 5.00 to 6.00 |
| CC1(C)CC(Oc2ccc3c(n2)OCc2cc(-n4cccn4)ccc2-3)CCN1 (stereo not shown) [Compound 186] | 5.00 to 6.00 | 1000 to 10000 nM | 5.00 to 6.00 | 6.00 to 7.00 | < 5.00 |
| c1cnn(-c2ccc3c(c2)COc2nc(N[C@@H]4C[C@H]5CC[C@@H](C4)N5)ccc2-3)c1 [Compound 179] | 6.00 to 7.00 | 100 to 1000 nM | 6.00 to 7.00 | 6.00 to 7.00 | 6.00 to 7.00 |
| CN(c1ccc2c(n1)OCc1cc(-c3cnc(=O)[nH]c3)ccc1-2)[C@@H]1C[C@H]2CC[C@@H](C1)N2 [Compound 161] | < 5.00 | > 10000 nM | < 5.00 | < 5.00 | < 5.00 |
| c1cnn(-c2ccc3c(c2)COc2nc(S[C@@H]4C[C@H]5CC[C@@H](C4)N5)ccc2-3)c1 [Compound 193] | < 5.00 | > 10000 nM | 5.00 to 6.00 | < 5.00 | < 5.00 |
| CN(c1ccc2c(n1)OCc1cc(-n3cccn3)ccc1-2)[C@@H]1C[C@H]2CC[C@@H](C1)N2 [Compound 149, (exo)-N-methyl-N-[8-(pyrazol-1-yl)-6H-isochromeno[3,4-b]pyridin-3-yl]-8-azabicyclo[3.2.1]octan-3-amine] | 6.00 to 7.00 | < 100 nM | 6.00 to 7.00 | 6.00 to 7.00 | 6.00 to 7.00 |
| CN(c1ccc2c(n1)OCc1cc(-c3cc(=O)n(C)cn3)ccc1-2)[C@@H]1C[C@H]2CC[C@@H](C1)N2 [Compound 162] | > 7.00 | < 100 nM | > 7.00 | > 7.00 | > 7.00 |
| CN(C)[C@H]1[C@@H]2CN(c3ccc4c(n3)OCc3cc(-n5cccn5)ccc3-4)C[C@@H]21 [Compound 197] | 5.00 to 6.00 | > 10000 nM | 5.00 to 6.00 | < 5.00 | < 5.00 |
| CN(c1ccc2c(n1)OCc1cc(-c3ccc(=O)n(C)c3)ccc1-2)[C@@H]1C[C@H]2CC[C@@H](C1)N2 [Compound 158] | 6.00 to 7.00 | 100 to 1000 nM | 6.00 to 7.00 | 6.00 to 7.00 | 6.00 to 7.00 |
| c1cnn(-c2ccc3c(c2)COc2nc(N4CCC5(CCNC5)CC4)ccc2-3)c1 [Compound 184] | 5.00 to 6.00 | 1000 to 10000 nM | 5.00 to 6.00 | 5.00 to 6.00 | 5.00 to 6.00 |
| c1cnn(-c2ccc3c(c2)COc2nc(N(C4CCNCC4)C4CC4)ccc2-3)c1 [Compound 202] | 5.00 to 6.00 | > 10000 nM | 5.00 to 6.00 | < 5.00 | < 5.00 |
| CC1(C)CC(Nc2ccc3c(n2)CCOc2cc(-n4cccn4)ccc2-3)CC(C)(C)N1 [Compound 137, 13-(pyrazol-1-yl)-N-(2,2,6,6-tetramethylpiperidin-4-yl)-10-oxa-6-azatricyclo [9.4.0.0^[2,7]]pentadeca-1(11),2(7),3,5,12,14-hexaen-5-amine] | 5.00 to 6.00 | 1000 to 10000 nM | < 5.00 | < 5.00 | 5.00 to 6.00 |
| CN1C[C@@H]2[C@H](C1)[C@H]2N(C)c1ccc2c(n1)OCc1cc(-n3cccn3)ccc1-2 [Compound 196] | < 5.00 | > 10000 nM | < 5.00 | < 5.00 | < 5.00 |
| CCN(c1ccc2c(n1)OCc1cc(-n3cccn3)ccc1-2)[C@@H]1C[C@H]2CC[C@@H](C1)N2 [Compound 191] | 6.00 to 7.00 | 1000 to 10000 nM | 6.00 to 7.00 | 6.00 to 7.00 | 5.00 to 6.00 |
| c1cnn(-c2ccc3c(c2)COc2nc(N4CCCC5(CNC5)C4)ccc2-3)c1 [Compound 181] | < 5.00 | > 10000 nM | < 5.00 | < 5.00 | < 5.00 |
| CN(c1ccc2c(n1)OCc1cc(-c3cn[nH]c3)ccc1-2)C1CC(C)(C)NC(C)(C)C1 [Compound 147, N,2,2,6,6-pentamethyl-N-[8-(1H-pyrazol-4-yl)-6H-isochromeno[3,4-b]pyridin-3-yl]piperidin-4-amine] | 6.00 to 7.00 | 100 to 1000 nM | 6.00 to 7.00 | < 5.00 | 6.00 to 7.00 |
| CN(c1ccc2c(n1)OCc1cc(-c3cn[nH]c3)ccc1-2)[C@@H]1C[C@H]2CC[C@@H](C1)N2 [Compound 108, (1R,5S)—N-Methyl-N-[8-(1H-pyrazol-4-yl)-6H-isochromeno[3,4-b]pyridin-3-yl]-8-azabicyclo [3.2.1] octan-3-amine] | > 7.00 | < 100 nM | > 7.00 | > 7.00 | > 7.00 |
| CN(c1ccc2c(n1)OCc1cc(-c3cnn(C)c3)ccc1-2)[C@@H]1C[C@H]2CC[C@@H](C1)N2 [Compound 150] | > 7.00 | < 100 nM | > 7.00 | < 5.00 | 6.00 to 7.00 |
| [2H]C([2H])([2H])N(c1ccc2c(n1)OCc1cc(-n3cccn3)ccc1-2)[C@@H]1C[C@H]2CCC[C@@H](C1)N2 [Compound 200] | > 7.00 | < 100 nM | > 7.00 | > 7.00 | 6.00 to 7.00 |
